# “Also recorded” adds a separate entry of the source. Like-named read-outs stand apart in the source and are kept apart here.
# Tests used:
# [1] = evaluation of GSKJ1, GSKJ2, GSKJ4, GSKJ5: efficacy / in vitro studies; details: for efficacy / activity: ethyl esters of GSKJ1 and GSKJ2; for potency in in vitro studies: over a control, data not shown
# Text: (§1) To further review compounds in this class, we evaluated […]4, and GSKJ5. Based on our data, and review of the molecule, the highly polar carboxylate group of GSKJ1 and GSKJ2 restricts cellular permeability. […] Accordingly, for purposes of treating disease and disorders here, the most preferred active pharmaceutical compound is GSK-J4.
# [2] = tested on: ex vivo mock cataract surgery explants; experiment: wound healing (open wound area) in ex vivo mock cataract surgery explants; format: cell-based, chick
# Text: (§2) FIG. 2A illustrates how the ex vivo mock cataract surgery explants are created. Ex vivo mock cataract surgery explants provide a powerful model in which to study wound healing as well as the development of fibrotic disease. Briefly, to create this model, the fiber cell mass is hydroeluted from the lens leaving behind lens epithelial cells that remain adherent to the lens capsule. The resultant ex vivo explant when placed in culture is star shaped, with the adherent cells located in the points of the star. In response to the injury induced by the surgery, mesenchymal cells involved in repair move to the wound edges.
# As shown in FIG. 2B wound healing across the denuded basement membrane is typically completed by day 3. […]
# We also determined whether GSKJ4 treatment affected wound healing. […] Open wound area (μm^2) was measured on Day 0 (D0) through Day 3 (D3) in the presence of vehicle control (DMSO) or GSKJ4. Open wound area was measured for each ex vivo capsule D0-D3 and presented in the graph+/− SEM. […]
# (§3) Cells from the ex vivo mock cataract surgery explant were treated for 24 hour as indicated above with vehicle or GSK-J4. […] In FIG. 13B we determined the effect of GSKJ4 short-term treatment on wound healing. […]
# [3] = testing of GSK-J4 concentration range (efficacy and toxicity)
# Method: For example, when administering GSK-J4 to a patient, an appropriate therapeutic range comprises: about 1 μM to 10 μM concentration for a liquid, topical vehicle. Suitable doses can be generated based upon the tissue to be treated and area to be treated. […] The LD50 is otherwise known to those of skill in the art based upon the molecule of interest. The GSK-J4 can be formulated with suitable excipients and into a suitable vehicle for delivery to a human patient.
# [4] = evaluation of GSKJ1, GSKJ2, GSKJ4, GSKJ5: cellular permeability / bioavailability; format: in vitro ADME
# Text: as §1
# [5] = tested on: cells from the ex vivo mock cataract surgery explants; experiment: ex vivo mock cataract surgery explants: myofibroblast emergence, αSMA and Fn-EDA expression; format: cell-based, chick
# Text: For example, in a PCO model, using an ex vivo lens mock cataract surgery model in chick embryos that recapitulates features of PCO, we investigated the cell reprogramming events involved in regulating changes in epigenetic markings of chromatin, which result in alterations of chromatin structure and impact gene transcriptional programs to control the emergence of myofibroblasts.
# We tested this epigenetic targeting strategy using a clinically relevant ex vivo chick mock cataract surgery model that recapitulates the major features of the lens fibrotic disease, PCO, as well as a human lens cells (SRA01/04). Human SRA01/04 lens cells are studied extensively for the acquisition of a mesenchymal phenotype resulting from an Epithelial Mesenchymal Transition (EMT) after exposure to TGFβ associated with the development of lens fibrosis.
# as §2
# As shown in FIG. 2B wound healing across the denuded basement membrane is typically completed by day 3. Lens epithelial cells led by a leader cell population, which expresses the surface receptor CD44+ [42], move collectively to repopulate the denuded area of the wounded lens capsule (where the differentiated lens fiber cells were removed). FIG. 2C depicts the wound area over a three-day period. In FIGS. 3A and B CD44+ leader cell population that has migrated to the outside wound edge of the explants (FIG. 3A, left panel, right arrow) directs the collective migration of lens epithelial cells onto the rigid tissue culture substrate, a region we refer to as the extracapsular zone (ECZ). […] Therefore, within one model system we can assess epigenetic targeting strategies for preventing fibrosis and determine how these approaches will affect normal wound healing. This ex vivo model was used to investigate the epigenetic mechanisms (detailed below) involved in regulating cell reprogramming to a myofibroblast phenotype associated with lens fibrotic disease.
# Next, we tested if manipulating histone de-methylase activity could change chromatin structure to block pro-fibrotic transcription factors from binding to DNA and the acquisition to a myofibroblast phenotype associated with fibrosis. […] Thus, treatment with GSKJ4 prevents αSMA expression in the ex vivo mock cataract surgery model.
# Cells from the ex vivo mock cataract surgery explants were treated with vehicle or GSKJ4 for 24 hr. ECZ regions were treated 1 day after injury and inhibitor was washed away after 24 hour of treatment. We chose to add the inhibitor on day 1, during the time of open chromatin, the perfect timing to prevent cell reprogramming to a fibrotic phenotype. […]
# as §3
# [6] = tested on: FHL124 human lens cells; experiment: TGFβ-stimulated human lens cells, western blot for FN-EDA and Collagen I; format: cell-based; details: FHL124 cells stimulated with TGFβ, FIG. 11
# Method: We also performed similar studies with human lens cell culture. FHL124 human lens cells, a non-transformed spontaneously generated human lens cell line from embryonic explants, were stimulated with Transforming Growth Factor β (TGFβ), a potent inducer of the fibrotic response, in the absence or presence of the UTX inhibitor GSKJ4. Western blotting was performed with antibodies to extracellular matrix molecules associated with fibrosis, including Fibronectin EDA (FN-EDA), a splice form of FN and Collagen I. FN EDA expression is tightly linked to myofibroblast differentiation and Collagen I is a defining feature of fibrosis/scarring. GAPDH was used as a loading control for WB analysis.
smiles,measurement,setting,value
CCOC(=O)CCNc1cc(N2CCc3ccccc3CC2)nc(-c2ccccn2)n1 [GSK-J4],efficacy / activity,[1],greater efficacy
same,wound healing (open wound area),"[2]; Day 0 through Day 3 in presence of GSKJ4 vs DMSO, FIG. 12",somewhat slowed but did not prevent
same,"wound healing (open wound area), short-term treatment","[2]; treated at time of injury, day 0, for 24 hour, followed day 0 through day 4",does not affect
same,efficacy by concentration,[3]; 10 μM versus 1 μM,higher efficacy at 10 μM than the 1 μM
same,toxicity,[3]; 100 μM,began to show signs of toxicity
same,bioavailability,[4]; ethyl ester masking the acid group,increased
same,"myofibroblast emergence, short-term treatment","[5]; 24 hour treatment, FIGS. 14A and B",effective to block
same,αSMA expression,"[5]; cells from ex vivo mock cataract surgery explants, FIG. 10A, B",prevents
same,emergence of myofibroblasts,"[5]; ex vivo mock cataract surgery model, FIG. 10A",effectively suppressed
same,"Fn-EDA expression, short-term treatment","[5]; treated 24 hr from day 1 after injury, washed away, lysates day 3, western blot",significantly inhibited
same,"αSMA expression, short-term treatment","[5]; treated 24 hr from day 1 after injury, washed away, lysates day 3, western blot (αSMA to GAPDH)",significantly inhibited; also recorded: effectively blocked
same,TGFβ induced expression of Collagen I,[6],blocked
same,TGFβ induced expression of FN EDA,[6],blocked
O=C(O)CCNc1cc(N2CCc3ccccc3CC2)nc(-c2ccccn2)n1 [GSKJ1],potency in in vitro studies,[1],potent over a control
same,cellular permeability,[4],restricts
CCOC(=O)CCNc1cc(N2CCc3ccccc3CC2)nc(-c2cccnc2)n1 [GSKJ5],efficacy / activity,[1],inactive
O=C(O)CCNc1cc(N2CCc3ccccc3CC2)nc(-c2cccnc2)n1 [GSKJ2],potency in in vitro studies,[1],potent over a control
same,cellular permeability,[4]; highly polar carboxylate group,restricts
